pIC50: −log10 of the molar value. Where a SMILES comes first, the peptide text is derived from it. The star is where a group is joined. Palmitoyl = CCCCCCCCCCCCCCCC(=O)*; NHhexadecyl = CCCCCCCCCCCCCCCCN*
Assays:
[1] = system: human dermal fibroblast (HDFa) cells; conditions: 72 h
[2] = system: human breast cancer (MCF-7) cells; conditions: 72 h

Row | pIC50 [2] | SMILES | pIC50 [1]
1 | 3.20 | CCCCCCCCCCCCCCCC(=O)N[C@H](C(=O)N[C@@H](CCCCN)C(=O)N1CCC[C@H]1C(=O)N[C@@H](CCC(=O)O)C(=O)N[C@@H](C)C(=O)N1CCC[C@H]1C(=O)O)[C@@H](C)CC [C16-IKPEAP] (Palmitoyl-IKPEAP-OH) | 3.41
2 | 3.64 | CCCCCCCCCCCCCCCCNC(=O)[C@@H](NC(=O)[C@H](CCCCN)NC(=O)[C@@H]1CCCN1C(=O)[C@H](CCC(=O)O)NC(=O)[C@H](C)NC(=O)[C@@H]1CCCN1)[C@@H](C)CC [PAEPKI-C16] (H-PAEPKI-NHhexadecyl) | 4.00
